Results: patent publication US5211944A, “Proanthocyanidin polymers having antiviral activity and methods of obtaining same” (Shaman Pharmaceuticals, Inc., priority 1991, dated 1993)
Converted amounts (≈) assume the structure as drawn. “And” between values parts separate entries of the source, which are not always exact repeats. Identical values can stand only once. Like-named read-outs stand apart in the source and are kept apart here.

What was measured:
Influenza A/NWS/33 virus [1] = settings: i.p. once daily for 8 days
Influenza viruses = settings: cited from earlier work
Influenza B = experiment: microbe, parasite or virus in culture; format: cell-based; settings: for ED50: FLU-B; for EC50: Influenza B virus
[2] = test system: Respiratory syncytial virus (RSV); experiment: microbe, parasite or virus in culture; format: cell-based; settings: human respiratory syncytial virus
RSV A2 [3] = experiment: RSV infection of cotton rats, intraperitoneal dosing, lung titer; format: in vivo, Hispid Cotton Rats; settings: for % kill: versus control; for ED50: 3-day intraperitoneal dosing
Experimental: Control animals received an equal volume of distilled water. […] All animals were killed on day 5. Lungs were removed and washed via transpleural lavage. The fluid collected was assessed for RSV titer in a microtiter assay using HEp2 cells.
(§1) Tissue control wells contained medium, but no virus. […] Virus control wells were observed daily. […] In addition to visual CPE, inhibition of syncytia formation is used to confirm activity against RSV. Lung RSV titer logm was calculated as described by Dubovi et al., 1983; 1984.

Adenovirus 7 = experiment: In vitro antiviral assay, inhibition of CPE, adenovirus 7; format: cell-based; settings: Human mastadenovirus B, HEp-2, HEp2 cells, Table 1 experiments 2-3, read-out: ED50 (the source's name)
Parainfluenza virus 3 = experiment: microbe, parasite or virus in culture; format: cell-based
PIV-1 = experiment: In vitro antiviral assay, inhibition of CPE, PIV-1
RSV or influenza virus = settings: cited from earlier work
Influenza A/NWS/33 virus [4] = settings: for influenza inhibition (words): 75 mg/kg/day i.p.
Measles = experiment: In vitro antiviral assay, inhibition of CPE, measles; format: cell-based, Measles virus; settings: Measles morbillivirus, HEp-2, HEp2 cells, Table 1 experiments 1-2, read-out: ED50 (the source's name)
[5] = Table 16; 75 mg/kg/day i.p. bid × 5; female
Adenovirus 5 = experiment: In vitro antiviral assay, inhibition of CPE, adenovirus 5; format: cell-based; settings: Human mastadenovirus C, HEp-2, HEp2 cells, Table 1 experiment 2, read-out: ED50 (the source's name)
Influenza A = experiment: microbe, parasite or virus in culture; format: cell-based; settings: for EC50: Influenza A virus
RSV A2 [6] = experiment: RSV infection of cotton rats, oral dosing, lung titer; format: in vivo, Hispid Cotton Rats; settings: for ED50: human respiratory syncytial virus, 72 h, 3-day oral dosing
Experimental: as §1
All animals were killed on day 5 and lung tissues were collected. Lungs were removed and washed via transpleural lavage. The fluid collected was assessed for RSV titer in a microtiter assay using HEp2 cells as described above.

[7] = test system: RNA-directed DNA polymerase; settings: Sethi, 1977; cited from earlier work
[8] = Persinos et al., 1979; cited from earlier work
[9] = 75 mg/kg/day i.p. bid × 5, days 2, 4, 6, 8
[10] = 75 mg/kg/day i.p. bid × 5 from 4 hr post-virus, female

Cl.NC12CC3CC(CC(C3)C1)C2 [Amantadine, 1-Adamantanamine HCL]
inhibition of influenza A infection (overall words) (Influenza A/NWS/33 virus [1]): ineffective
central nervous system side effects (Influenza viruses): causes some central nervous system side effects
shortening of fever duration and respiratory symptoms (Influenza viruses): about 50%

NC(=O)c1ncn([C@@H]2O[C@H](CO)[C@@H](O)[C@H]2O)n1 [Ribavirin, 1-β-D-ribofuranosyl-1,2,4-triazole 3-carboxamide]
ED50 (Influenza B; B-USSR): 7.8 µg/mL (≈ 31.9 µM)
ED50 (Influenza B; B-Yamagata): 8.0 µg/mL (≈ 32.8 µM)
EC50 (Influenza B; HEp-2, FLU-B, B-HongKong, read-out: ED50 (the source's name)): 1 µg/mL (≈ 4.09 µM)
EC50 (Influenza B; HEp-2, FLU-B, B-USSR, read-out: ED50 (the source's name)): 4 µg/mL (≈ 16.4 µM)
EC50 (Influenza B; HEp-2, FLU-B, B-Yamagata, read-out: ED50 (the source's name)): 6 µg/mL (≈ 24.6 µM)
EC50 (Influenza B; HEp-2, FLU-B, mean of all strains, read-out: ED50, MEAN): 5.8 µg/mL (≈ 23.8 µM)
EC50 (Influenza B; HEp-2, Influenza B, HEp2 cells, Table 1 experiments 1-2, read-out: ED50 (the source's name)): 18 µg/mL (≈ 73.7 µM)
EC50 ([2]; HEp-2, RSV B-46791, read-out: ED50 (the source's name)): 8 µg/mL (≈ 32.8 µM)
EC50 ([2]; HEp-2, RSV B-47063, read-out: ED50 (the source's name)): 12 µg/mL (≈ 49.1 µM)
EC50 ([2]; HEp-2, RSV, mean of all strains, read-out: ED50, MEAN): 11.9 µg/mL (≈ 48.7 µM)
Lung titer (RSV titer log 10/g lung, Mean ± S.D.) (RSV A2 [3]; 10 mg/kg i.p.): 4.5 ± 0.2 log 10 /g lung
Lung titer (antilog, in parentheses) (RSV A2 [3]; 10 mg/kg i.p.): 31,622
% kill (RSV A2 [3]; 10 mg/kg i.p.): 0%
Lung titer (RSV titer log 10/g lung, Mean ± S.D.) (RSV A2 [3]; 30 mg/kg i.p.): 4.0 ± 0.3 log 10 /g lung
Lung titer (antilog, in parentheses) (RSV A2 [3]; 30 mg/kg i.p.): 10,000
% kill (RSV A2 [3]; 30 mg/kg i.p.): 68.4%
reduction in lung titers (RSV A2 [3]; 40 mg/kg i.p.): 50%
Lung titer (RSV titer log 10/g lung, Mean ± S.D.) (RSV A2 [3]; 90 mg/kg i.p.): 2.8 ± 0.3 log 10 /g lung
Lung titer (antilog, in parentheses) (RSV A2 [3]; 90 mg/kg i.p.): 631
% kill (RSV A2 [3]; 90 mg/kg i.p.): 98%
ED50 (RSV A2 [3]; individual experiments): 30 mg/kg and 50 mg/kg
ED50 (RSV A2 [3]; human respiratory syncytial virus, ip, 72 h, individual experiments, read-out: ED50): 40 mg/kg
ED50 (RSV A2 [3]; human respiratory syncytial virus, ip, 72 h, mean, read-out: ED50, Mean ± S.E.M.): 40 ± 6 mg/kg
CC50 (in vitro; ID50, FLU-A, B-Japan experiment): 78 µg/mL (≈ 319 µM)
CC50 (in vitro; ID50, FLU-A, B-NWS/33 experiment): 100 µg/mL (≈ 409 µM)
CC50 (in vitro; ID50, FLU-A, B-Portchalm experiment): 68 µg/mL (≈ 278 µM)
CC50 (in vitro; ID50, FLU-B, B-HongKong experiment): 80 µg/mL (≈ 328 µM)
CC50 (in vitro; ID50, MEAN, FLU-A experiments, mean): 750 µg/mL (≈ 3070 µM)
CC50 (in vitro; ID50, MEAN, FLU-B experiments, mean): 847 µg/mL (≈ 3470 µM)
CC50 (in vitro; ID50, MEAN, RSV experiments, mean): 946 µg/mL (≈ 3870 µM)
CC50 (in vitro; ID50, PIV-1 experiment): 1000 µg/mL (≈ 4090 µM)
CC50 (in vitro; ID50, PIV-3 experiment): 1000 µg/mL (≈ 4090 µM)
CC50 (in vitro; ID50, RSV A-Tracy experiment): 1000 µg/mL (≈ 4090 µM)
CC50 (in vitro; ID50, RSV B-18537 experiment): 1000 µg/mL (≈ 4090 µM)
CC50 (in vitro; ID50, RSV B-46791 experiment): 1000 µg/mL (≈ 4090 µM)
CC50 (in vitro; ID50, RSV B-47063 experiment): 1000 µg/mL (≈ 4090 µM)
EC50 (Adenovirus 7): > 1000 µg/mL
EC50 (Parainfluenza virus 3; HEp-2, PIV-3, mean, read-out: ED50, MEAN): 15.4 µg/mL (≈ 63.1 µM)
EC50 (Parainfluenza virus 3; HEp-2, Parainfluenza virus (3), HEp2 cells, Table 1 experiments 1-3, read-out: ED50 (the source's name)): 15.6 µg/mL (≈ 63.9 µM)
ED50 (Parainfluenza virus 3; PIV-3): 16.0 µg/mL (≈ 65.5 µM)
ED50 (Parainfluenza virus 3; Parainfluenza virus (3), HEp2 cells, Table 1 experiments 1-3): 15.7 µg/mL and 12 µg/mL
EC50 (PIV-1; HEp-2, read-out: ED50, MEAN, PIV-1, mean): 10.7 µg/mL (≈ 43.8 µM)
EC50 (PIV-1; HEp-2, read-out: ED50, PIV-1): 12 µg/mL (≈ 49.1 µM)
ED50 (PIV-1; PIV-1): 8.0 µg/mL (≈ 32.8 µM)
severity of illness and amount of virus shed (RSV or influenza virus; acute respiratory infections): reduce the severity of illness and amount of virus shed
teratogenicity (RSV or influenza virus; in animals): teratogenic in animals
influenza inhibition (words) (Influenza A/NWS/33 virus [4]): inhibitory to the virus infection
Mean SaO2 % (Influenza A/NWS/33 virus [4]; 75 mg/kg/day i.p. bid × 5, daily for 10 days): 81%
Mean Score (lung) (Influenza A/NWS/33 virus [4]; [9]): 0.3
Mean Virus Titer (log10) (Influenza A/NWS/33 virus [4]; [9]): 3.9 log10
Infected, Treated Surv/Total (Influenza A/NWS/33 virus [4]; [10]): 10/10
MST (Influenza A/NWS/33 virus [4]; [10]): > 21.0 days
Infected, Treated Surv/Total (Influenza A/NWS/33 virus [4]; 75 mg/kg/day i.p. bid × 5 from 4 hr post-virus, female, listed as ribavirin): All infected, ribavirin-treated mice survived the infection
influenza inhibition (words) (Influenza A/NWS/33 virus [4]; listed as ribavirin): significant influenza inhibition
EC50 (Measles): 31.3 µg/mL (≈ 128 µM)
Host Wt. Change [5]: 0.6 g
Toxicity controls Surv/Total [5]: 5/5
EC50 (Adenovirus 5): > 1000 µg/mL
EC50 (Influenza A; HEp-2, FLU-A, A-Leningrad, read-out: ED50 (the source's name)): 6 µg/mL (≈ 24.6 µM)
EC50 (Influenza A; HEp-2, FLU-A, A-Shanghai, read-out: ED50 (the source's name)): 6 µg/mL (≈ 24.6 µM)
EC50 (Influenza A; HEp-2, FLU-A, B-Japan, read-out: ED50 (the source's name)): 1.6 µg/mL (≈ 6.55 µM)
EC50 (Influenza A; HEp-2, FLU-A, B-NWS/33, read-out: ED50 (the source's name)): 1 µg/mL (≈ 4.09 µM)
EC50 (Influenza A; HEp-2, FLU-A, B-Portchalm, read-out: ED50 (the source's name)): 1 µg/mL (≈ 4.09 µM)
EC50 (Influenza A; HEp-2, FLU-A, mean of all strains, read-out: ED50, MEAN): 8.2 µg/mL (≈ 33.6 µM)
EC50 (Influenza A; HEp-2, Influenza A, HEp2 cells, Table 1 experiments 1-3, read-out: ED50 (the source's name)): 15 µg/mL (≈ 61.4 µM)
ED50 (Influenza A; Influenza A, HEp2 cells, Table 1 experiments 1-3): 14.3 µg/mL and 14 µg/mL
Lung titer (RSV titer log 10/g lung, Mean ± S.D.) (RSV A2 [6]; 40 mg/kg oral): 3.30 ± 0.5 log 10 /g lung
Lung titer (antilog, in parentheses) (RSV A2 [6]; 40 mg/kg oral): 1,995
reduction in lung titers (RSV A2 [6]; 40 mg/kg oral): > 90%
% kill (RSV A2 [6]; 40 mg/kg oral, versus control): 80%
ED50 (RSV A2 [6]; individual experiments, read-out: ED50): > 90 mg/kg
ED50 (RSV A2 [6]; mean, read-out: ED50, Mean ± SEM): > 90 mg/kg

COc1ccc2c(=O)oc3c(OC)cc(CCN(C)C)c4c(=O)oc1c2c34 [taspine]
RNA-directed DNA polymerase activity [7]: inhibit RNA-directed DNA polymerase activity
anti-inflammatory activity [8]: exhibits anti-inflammatory activity
